Numbered stars: 1 amine (or outer) side, 2 acyl side, 3 side chain; on linkers, the order of the positions; unused ones are H or OH. Bridge positions count the residues as written; N and C are the ends. Square brackets hold non-standard residues; d marks the D form. Peptide text beside a SMILES is read from it. I, II: the chains in the order shown. Phe(3,4-Cl2) = N[C@@H](Cc1ccc(Cl)c(Cl)c1)C(=O)O; Phe(2,4-Cl2) = N[C@@H](Cc1ccc(Cl)cc1Cl)C(=O)O; 1Nal = N[C@@H](Cc1cccc2ccccc12)C(=O)O; 2Nal = N[C@@H](Cc1ccc2ccccc2c1)C(=O)O; d1Nal = N[C@H](Cc1cccc2ccccc12)C(=O)O; d2Nal = N[C@H](Cc1ccc2ccccc2c1)C(=O)O; Diglycolyl = O=C(COCC(=O)[*:2])[*:1]; NMeR = CN[C@@H](CCCNC(=N)N)C(=O)O; hPhe = N[C@@H](CCc1ccccc1)C(=O)O; Tic = O=C(O)[C@@H]1Cc2ccccc2CN1; NMeK = CN[C@@H](CCCCN)C(=O)O; Pen = CC(C)(S)[C@H](N)C(=O)O; dNMeK = CN[C@H](CCCCN)C(=O)O
Assays:
rh integrin α4β7 = target: T1, rh integrin α4β7 (Homo sapiens, UniProt P13612+P26010); assay: α4β7-MAdCAM Competition ELISA; assay type: binding; conditions: Table 3-B, Potency (α4β7); range classes; read-out: α4β7 ELISA IC50
T1 construct: purchased R&D Systems 5397-A30
Description: A nickel coated plate (Pierce #15442) was coated with rh integrin α4β7 (R&D Systems #5397-A30) at 800 ng/well and incubated at room temperature with shaking for 1 hr. The solution was then removed by shaking and blocked with assay buffer (50 mM Tris-HCl pH7.6, 150 mM NaCl, 1 mM MnCl2 or MgCl2, 0.05% Tween-20 and 0.5% BSA) at 250 ul/well. The plate was then incubated at room temperature for 1 hr. Each well was washed 3 times with wash buffer (50 mM Tris-HCl pH7.6, 100 mM NaCl, 1 mM MnCl2 or MgCl2, 0.05% Tween-20). To each well was added 25 ul of a serial dilution (3-fold dilutions in assay buffer) of peptide starting at 20 μM. 25 ul of recombinant human MAdCAM-1 (R&D Systems #6056-MC) was then added to each well at a fixed concentration 20 nM. The final starting peptide concentration was 10 μM, and the final MAdCAM-1 concentration was 10 nM. The plates were then incubated at room temperature for 1 hr to reach binding equilibrium. The wells were then washed three times with wash buffer. 50 ul of mouse anti-human IgG1-HRP (Invitrogen # A10648) diluted in 1:2000 in assay buffer was then added to each well. The wells were incubated at room temperature for 45 min with shaking. The wells were then washed 3 times with wash buffer. 100 ul of 3,3′,5,5′-Tetramethylbenzidine (TMB) were then added to each well and closely observe during development time. The reaction was stopped with 2N H2SO4 and absorbance was read at 450 nm.
TMB is a chromogenic substrate suitable for use in ELISA procedures, which utilize horseradish peroxidase conjugates. This substrate produces a soluble end product that is blue in color and can be read spectrophotometrically at 370 or 655 nm. The reaction maybe stopped with 2 M H2S04, resulting in a yellow solution that is read at 450 nm. Each tablet contains 1 mg of TMB substrate. To prepare TMB Substrate Solution, dissolve one 3,3′,5,5′-tetramethylbenzidine tablet in 1 ml of DMSO and add to 9 ml of 0.05 M Phosphate-Citrate Buffer, pH 5.0. Add 2 μl of fresh 30% hydrogen peroxide (Product No. H 1009) per 10 ml of substrate buffer solution, immediately prior to use.

α4β7 = α4β7 (Homo sapiens, UniProt P13612+P26010); assay: α4β7-MAdCAM Cell Adhesion Assay (RPMI 8866 human cells); assay type: cell-based; parameters: host or cells: RPMI 8866 human B lymphoblastoid cells; conditions: Table 3-B, Potency (α4β7); range classes; read-out: α4β7 cell (Hu) IC50
In short: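 Adhesion read-out: MTT absorbance at 570 nm minus no-cell wells, after three washes. Plates coated with rh MAdCAM-1/Fc received peptide dilutions plus 200,000 RPMI 8866 cells in Mn2+ (1 mM)-supplemented DMEM, 0.1% BSA, HEPES pH 7, incubated 30-45 min, 37 °C.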

T1 sequence (P13612 34-977 limits assumed): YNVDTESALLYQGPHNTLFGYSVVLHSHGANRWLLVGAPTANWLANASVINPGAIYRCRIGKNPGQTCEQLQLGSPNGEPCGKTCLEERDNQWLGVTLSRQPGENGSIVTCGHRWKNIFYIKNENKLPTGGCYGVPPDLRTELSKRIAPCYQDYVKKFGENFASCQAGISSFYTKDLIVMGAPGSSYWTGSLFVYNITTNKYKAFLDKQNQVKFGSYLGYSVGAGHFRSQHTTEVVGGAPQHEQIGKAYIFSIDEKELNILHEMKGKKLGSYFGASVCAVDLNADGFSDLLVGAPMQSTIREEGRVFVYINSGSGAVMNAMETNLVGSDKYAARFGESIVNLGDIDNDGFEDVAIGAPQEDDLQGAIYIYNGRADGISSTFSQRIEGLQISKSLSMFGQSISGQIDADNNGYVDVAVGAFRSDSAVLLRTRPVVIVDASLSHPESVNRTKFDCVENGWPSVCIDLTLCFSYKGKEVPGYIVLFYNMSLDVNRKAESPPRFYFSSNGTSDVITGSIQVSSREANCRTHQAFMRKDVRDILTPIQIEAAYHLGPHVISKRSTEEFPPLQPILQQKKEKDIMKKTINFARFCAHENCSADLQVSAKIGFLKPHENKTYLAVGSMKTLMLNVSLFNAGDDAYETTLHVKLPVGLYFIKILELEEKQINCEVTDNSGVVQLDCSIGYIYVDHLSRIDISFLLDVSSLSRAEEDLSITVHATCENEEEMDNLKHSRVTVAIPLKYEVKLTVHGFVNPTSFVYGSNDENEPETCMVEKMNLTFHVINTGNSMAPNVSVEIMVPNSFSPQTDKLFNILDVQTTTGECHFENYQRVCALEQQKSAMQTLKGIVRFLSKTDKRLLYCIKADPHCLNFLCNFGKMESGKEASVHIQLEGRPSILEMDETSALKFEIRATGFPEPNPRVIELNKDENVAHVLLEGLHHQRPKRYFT
T1 sequence (P26010 20-723 limits assumed): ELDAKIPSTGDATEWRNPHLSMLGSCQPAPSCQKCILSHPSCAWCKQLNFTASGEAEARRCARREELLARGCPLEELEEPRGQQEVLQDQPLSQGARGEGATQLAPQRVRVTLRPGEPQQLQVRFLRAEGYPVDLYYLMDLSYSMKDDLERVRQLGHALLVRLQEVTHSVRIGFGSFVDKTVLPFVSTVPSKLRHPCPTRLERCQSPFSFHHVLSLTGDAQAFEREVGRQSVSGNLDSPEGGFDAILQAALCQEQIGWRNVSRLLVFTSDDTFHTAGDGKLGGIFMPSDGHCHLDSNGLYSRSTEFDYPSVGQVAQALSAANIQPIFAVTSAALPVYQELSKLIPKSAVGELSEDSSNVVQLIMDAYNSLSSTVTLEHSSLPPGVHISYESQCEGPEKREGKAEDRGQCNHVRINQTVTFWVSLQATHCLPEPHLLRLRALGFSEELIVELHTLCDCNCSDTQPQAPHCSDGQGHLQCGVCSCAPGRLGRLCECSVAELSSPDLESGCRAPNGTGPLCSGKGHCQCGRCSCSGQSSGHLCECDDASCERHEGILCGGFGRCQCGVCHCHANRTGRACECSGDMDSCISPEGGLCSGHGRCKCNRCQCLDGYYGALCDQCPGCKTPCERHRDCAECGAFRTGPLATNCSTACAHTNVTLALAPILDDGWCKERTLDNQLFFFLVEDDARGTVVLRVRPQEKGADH
α4β7, sequence (P13612 34-1032): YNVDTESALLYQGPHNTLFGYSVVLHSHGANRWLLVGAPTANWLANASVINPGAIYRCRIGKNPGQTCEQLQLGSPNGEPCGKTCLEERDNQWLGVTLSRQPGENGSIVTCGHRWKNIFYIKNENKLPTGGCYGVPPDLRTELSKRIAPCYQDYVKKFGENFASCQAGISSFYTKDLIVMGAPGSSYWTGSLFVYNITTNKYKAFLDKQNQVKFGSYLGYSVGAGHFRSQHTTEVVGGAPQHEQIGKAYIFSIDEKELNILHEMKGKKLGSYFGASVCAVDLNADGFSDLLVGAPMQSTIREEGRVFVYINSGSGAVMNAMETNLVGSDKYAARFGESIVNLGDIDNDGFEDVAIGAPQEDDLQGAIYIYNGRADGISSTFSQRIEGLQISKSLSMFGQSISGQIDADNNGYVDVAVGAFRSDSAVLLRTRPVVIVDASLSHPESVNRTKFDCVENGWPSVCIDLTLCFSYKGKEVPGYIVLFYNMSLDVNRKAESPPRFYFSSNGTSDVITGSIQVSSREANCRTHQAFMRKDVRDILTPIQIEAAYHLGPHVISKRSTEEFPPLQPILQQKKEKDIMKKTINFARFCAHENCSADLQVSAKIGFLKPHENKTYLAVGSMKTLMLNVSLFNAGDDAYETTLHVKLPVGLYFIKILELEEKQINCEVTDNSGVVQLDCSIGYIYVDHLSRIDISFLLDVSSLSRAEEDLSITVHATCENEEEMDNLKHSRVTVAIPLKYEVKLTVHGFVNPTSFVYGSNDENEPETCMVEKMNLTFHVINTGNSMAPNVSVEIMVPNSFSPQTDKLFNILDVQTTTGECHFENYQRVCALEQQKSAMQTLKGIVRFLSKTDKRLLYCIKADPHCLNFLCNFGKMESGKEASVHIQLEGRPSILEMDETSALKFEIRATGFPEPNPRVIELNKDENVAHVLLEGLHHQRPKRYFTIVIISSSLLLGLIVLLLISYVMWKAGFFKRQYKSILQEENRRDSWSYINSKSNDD
α4β7, sequence (P26010 20-798): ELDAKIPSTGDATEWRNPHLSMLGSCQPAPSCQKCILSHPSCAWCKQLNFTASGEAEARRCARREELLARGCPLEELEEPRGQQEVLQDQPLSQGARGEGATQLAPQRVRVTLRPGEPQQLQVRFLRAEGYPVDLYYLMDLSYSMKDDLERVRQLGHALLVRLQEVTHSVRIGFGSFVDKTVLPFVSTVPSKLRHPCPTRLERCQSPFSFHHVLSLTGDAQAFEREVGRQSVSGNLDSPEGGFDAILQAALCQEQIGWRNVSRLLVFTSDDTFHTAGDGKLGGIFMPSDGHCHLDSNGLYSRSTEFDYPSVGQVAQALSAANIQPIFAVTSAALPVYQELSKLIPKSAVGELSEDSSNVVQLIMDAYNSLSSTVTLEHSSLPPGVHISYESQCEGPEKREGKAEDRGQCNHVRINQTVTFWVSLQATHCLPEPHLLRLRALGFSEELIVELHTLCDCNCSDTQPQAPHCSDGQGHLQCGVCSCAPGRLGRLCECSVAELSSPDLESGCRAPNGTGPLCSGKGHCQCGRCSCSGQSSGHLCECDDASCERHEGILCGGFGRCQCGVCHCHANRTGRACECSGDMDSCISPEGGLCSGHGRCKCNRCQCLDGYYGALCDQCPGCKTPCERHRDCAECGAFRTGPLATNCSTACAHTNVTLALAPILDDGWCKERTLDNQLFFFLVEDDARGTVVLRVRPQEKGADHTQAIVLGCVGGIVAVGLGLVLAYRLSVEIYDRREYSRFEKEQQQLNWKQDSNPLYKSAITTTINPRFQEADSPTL

Row | Compound | IC50 (rh integrin α4β7) [nM] | IC50 (α4β7) [nM]
1 | COC(=O)C[C@@H]1NC(=O)[C@H](CO)NC(=O)[C@H](CCCNC(=N)N)N(C)C(=O)[C@@H](NC(C)=O)C(C)(C)SSC(C)(C)[C@@H](C(=O)N[C@@H](Cc2c[nH]c3ccccc23)C(=O)N[C@@H](CCC(=O)O)C(=O)N[C@H](CCCCNC(=O)COCC(=O)NCCCC[C@@H](NC(=O)[C@H](CCC(=O)O)NC(=O)[C@H](Cc2c[nH]c3ccccc23)NC(=O)[C@H]2NC(=O)[C@H](CC(C)C)NC(=O)[C@H]([C@@H](C)O)NC(=O)[C@H](CC(=O)OC)NC(=O)[C@H](CO)NC(=O)[C@H](CCCNC(=N)N)N(C)C(=O)[C@@H](NC(C)=O)C(C)(C)SSC2(C)C)C(N)=O)C(N)=O)NC(=O)[C@H](CC(C)C)NC(=O)[C@H]([C@@H](C)O)NC1=O [compound 73] (I: Ac-[Pen][NMeR]SD(OMe)TL[Pen]WE[dK]-NH2 / II: Ac-[Pen][NMeR]SD(OMe)TL[Pen]WE[dK]-NH2; disulfide I:1-I:7, II:1-II:7; linker I:10-II:10 via Diglycolyl) | < 10 | < 10
2 | CC(=O)N[C@@H]1C(=O)N(C)[C@@H](CCCNC(=N)N)C(=O)N[C@@H](CO)C(=O)N[C@@H](CC(=O)O)C(=O)N[C@@H]([C@@H](C)O)C(=O)N[C@@H](CC(C)C)C(=O)N[C@H](C(=O)N[C@@H](Cc2ccc3ccccc3c2)C(=O)N[C@H](CCC(=O)O)C(=O)N[C@H](CCCCN)C(N)=O)C(C)(C)SSC1(C)C [compound 9] (Ac-[Pen][NMeR]SDTL[Pen][2Nal][dE][dK]-NH2; disulfide 1-7) | 10 to 25 | 100 to 500
3 | CC(=O)N[C@@H]1C(=O)N(C)[C@@H](CCCNC(=N)N)C(=O)N[C@@H](CO)C(=O)N[C@@H](CC(=O)O)C(=O)N[C@@H]([C@@H](C)O)C(=O)N[C@@H](CC(C)C)C(=O)N[C@H](C(=O)N[C@@H](Cc2ccc3ccccc3c2)C(=O)N[C@H](CCC(=O)O)C(=O)N(C)[C@H](CCCCN)C(N)=O)C(C)(C)SSC1(C)C [compound 13] (Ac-[Pen][NMeR]SDTL[Pen][2Nal][dE][dNMeK]-NH2; disulfide 1-7) | 10 to 25 | 100 to 500
4 | CC(=O)N[C@@H]1C(=O)N(C)[C@@H](CCCNC(=N)N)C(=O)N[C@@H](CO)C(=O)N[C@@H](CC(=O)O)C(=O)N[C@@H]([C@@H](C)O)C(=O)N[C@@H](CC(C)C)C(=O)N[C@H](C(=O)N[C@@H](CCc2ccccc2)C(=O)N[C@H](CCC(=O)O)C(=O)N[C@H](CCCCNC(=O)COCC(=O)NCCCC[C@@H](NC(=O)[C@@H](CCC(=O)O)NC(=O)[C@H](CCc2ccccc2)NC(=O)[C@H]2NC(=O)[C@H](CC(C)C)NC(=O)[C@H]([C@@H](C)O)NC(=O)[C@H](CC(=O)O)NC(=O)[C@H](CO)NC(=O)[C@H](CCCNC(=N)N)N(C)C(=O)[C@@H](NC(C)=O)C(C)(C)SSC2(C)C)C(N)=O)C(N)=O)C(C)(C)SSC1(C)C [compound 40] (I: Ac-[Pen][NMeR]SDTL[Pen][hPhe][dE][dK]-NH2 / II: Ac-[Pen][NMeR]SDTL[Pen][hPhe][dE][dK]-NH2; disulfide I:1-I:7, II:1-II:7; linker I:10-II:10 via Diglycolyl) | < 10 | 100 to 500
5 | CC(=O)N[C@@H]1C(=O)N(C)[C@@H](CCCNC(=N)N)C(=O)N[C@@H](CO)C(=O)N[C@@H](CC(=O)O)C(=O)N[C@@H]([C@@H](C)O)C(=O)N[C@@H](CC(C)C)C(=O)N[C@H](C(=O)N[C@@H](Cc2ccc3ccccc3c2)C(=O)N[C@@H](CCC(=O)O)C(=O)N(C)[C@H](CCCCN)C(N)=O)C(C)(C)SSC1(C)C [compound 15] (Ac-[Pen][NMeR]SDTL[Pen][2Nal]E[dNMeK]-NH2; disulfide 1-7) | < 10 | –
6 | CC(=O)N[C@@H]1C(=O)N(C)[C@@H](CCCNC(=N)N)C(=O)N[C@@H](CO)C(=O)N[C@@H](CC(=O)O)C(=O)N[C@@H]([C@@H](C)O)C(=O)N[C@@H](CC(C)C)C(=O)N[C@H](C(=O)N[C@@H](Cc2ccc(Cl)c(Cl)c2)C(=O)N[C@@H](CCC(=O)O)C(=O)N[C@H](CCCCN)C(N)=O)C(C)(C)SSC1(C)C [compound 17] (Ac-[Pen][NMeR]SDTL[Pen][Phe(3,4-Cl2)]E[dK]-NH2; disulfide 1-7) | 10 to 25 | –
7 | CC(=O)N[C@@H]1C(=O)N(C)[C@@H](CCCNC(=N)N)C(=O)N[C@@H](CO)C(=O)N[C@@H](CC(=O)O)C(=O)N[C@@H]([C@@H](C)O)C(=O)N[C@@H](CC(C)C)C(=O)N[C@H](C(=O)N2Cc3ccccc3C[C@H]2C(=O)N[C@H](CCC(=O)O)C(=O)N[C@H](CCCCN)C(N)=O)CSSC1(C)C [compound 89] (Ac-[Pen][NMeR]SDTLC[Tic][dE][dK]-NH2; disulfide 1-7) | 25 to 50 | –
8 | CC(=O)N[C@@H]1C(=O)N(C)[C@@H](CCCNC(=N)N)C(=O)N[C@@H](CO)C(=O)N[C@@H](CC(=O)O)C(=O)N[C@@H]([C@@H](C)O)C(=O)N[C@@H](CC(C)C)C(=O)N[C@H](C(=O)N[C@@H](Cc2ccc3ccccc3c2)C(=O)N[C@@H](CCC(=O)O)C(=O)N(C)[C@@H](CCCCNC(=O)COCC(=O)NCCCC[C@@H](C(N)=O)N(C)C(=O)[C@H](CCC(=O)O)NC(=O)[C@H](Cc2ccc3ccccc3c2)NC(=O)[C@H]2NC(=O)[C@H](CC(C)C)NC(=O)[C@H]([C@@H](C)O)NC(=O)[C@H](CC(=O)O)NC(=O)[C@H](CO)NC(=O)[C@H](CCCNC(=N)N)N(C)C(=O)[C@@H](NC(C)=O)C(C)(C)SSC2(C)C)C(N)=O)C(C)(C)SSC1(C)C [compound 138] (I: Ac-[Pen][NMeR]SDTL[Pen][2Nal]E[NMeK]-NH2 / II: Ac-[Pen][NMeR]SDTL[Pen][2Nal]E[NMeK]-NH2; disulfide I:1-I:7, II:1-II:7; linker I:10-II:10 via Diglycolyl) | 10 to 25 | 10 to 25
9 | CC(=O)N[C@@H]1C(=O)N(C)[C@@H](CCCNC(=N)N)C(=O)N[C@@H](CO)C(=O)N[C@@H](CC(=O)O)C(=O)N[C@@H]([C@@H](C)O)C(=O)N[C@@H](CC(C)C)C(=O)N[C@H](C(=O)N[C@H](Cc2ccc3ccccc3c2)C(=O)N[C@@H](CCC(=O)O)C(=O)N[C@H](CCCCN)C(N)=O)C(C)(C)SSC1(C)C [compound 11] (Ac-[Pen][NMeR]SDTL[Pen][d2Nal]E[dK]-NH2; disulfide 1-7) | 25 to 50 | –
10 | CC(=O)N[C@@H]1C(=O)N(C)[C@@H](CCCNC(=N)N)C(=O)N[C@@H](CO)C(=O)N[C@@H](CC(=O)O)C(=O)N[C@@H]([C@@H](C)O)C(=O)N[C@@H](CC(C)C)C(=O)N[C@H](C(=O)N[C@@H](Cc2ccc(Cl)cc2Cl)C(=O)N[C@@H](CCC(=O)O)C(=O)N[C@H](CCCCN)C(N)=O)C(C)(C)SSC1(C)C [compound 16] (Ac-[Pen][NMeR]SDTL[Pen][Phe(2,4-Cl2)]E[dK]-NH2; disulfide 1-7) | 10 to 25 | –
11 | CC(=O)N[C@@H]1C(=O)N(C)[C@@H](CCCNC(=N)N)C(=O)N[C@@H](CO)C(=O)N[C@@H](CC(=O)O)C(=O)N[C@@H]([C@@H](C)O)C(=O)N[C@@H](CC(C)C)C(=O)N[C@H](C(=O)N[C@@H](CCc2ccccc2)C(=O)N[C@H](CCC(=O)O)C(=O)N[C@H](CCCCN)C(N)=O)C(C)(C)SSC1(C)C [compound 14] (Ac-[Pen][NMeR]SDTL[Pen][hPhe][dE][dK]-NH2; disulfide 1-7) | 25 to 50 | –
12 | CC(=O)N[C@@H]1C(=O)N(C)[C@@H](CCCNC(=N)N)C(=O)N[C@@H](CO)C(=O)N[C@@H](CC(=O)O)C(=O)N[C@@H]([C@@H](C)O)C(=O)N[C@@H](CC(C)C)C(=O)N[C@H](C(=O)N[C@@H](Cc2ccc3ccccc3c2)C(=O)N[C@H](CCCCN)C(N)=O)C(C)(C)SSC1(C)C [compound 88] (Ac-[Pen][NMeR]SDTL[Pen][2Nal][dK]-NH2; disulfide 1-7) | 10 to 25 | –
13 | CC(=O)N[C@@H]1C(=O)N(C)[C@@H](CCCNC(=N)N)C(=O)N[C@@H](CO)C(=O)N[C@@H](CC(=O)O)C(=O)N[C@@H]([C@@H](C)O)C(=O)N[C@@H](CC(C)C)C(=O)N[C@H](C(=O)N[C@@H](Cc2cccc3ccccc23)C(=O)N[C@H](CCC(=O)O)C(=O)N[C@H](CCCCN)C(N)=O)C(C)(C)SSC1(C)C [compound 8] (Ac-[Pen][NMeR]SDTL[Pen][1Nal][dE][dK]-NH2; disulfide 1-7) | 25 to 50 | –
14 | CC(=O)N[C@@H]1C(=O)N(C)[C@@H](CCCNC(=N)N)C(=O)N[C@@H](CO)C(=O)N[C@@H](CC(=O)O)C(=O)N[C@@H]([C@@H](C)O)C(=O)N[C@@H](CC(C)C)C(=O)N[C@H](C(=O)N[C@H](Cc2cccc3ccccc23)C(=O)N[C@@H](CCC(=O)O)C(=O)N[C@H](CCCCN)C(N)=O)C(C)(C)SSC1(C)C [compound 10] (Ac-[Pen][NMeR]SDTL[Pen][d1Nal]E[dK]-NH2; disulfide 1-7) | 10 to 25 | –

Source: patent US9809623B2, “α4β7 peptide monomer and dimer antagonists” (Protagonist Therapeutics, Inc., priority 2014, dated 2017)
